Measured values reported in ChEMBL document CHEMBL3352351 (Bioorg Med Chem, 2014).

What was measured:
A549 = assay: Cytotoxicity against human A549 cells after 72 hrs by MTT assay; conditions: A549, 72 h
HT-29 = assay: Cytotoxicity against human HT-29 cells after 72 hrs by MTT assay; conditions: HT-29, 72 h
[1] = Cytotoxicity against human MKN45 cells after 72 hrs by MTT assay; conditions: MKN-45, 72 h
[2] = Cytotoxicity against human U87MG cells after 72 hrs by MTT assay; format: functional, cell-based, U-87MG ATCC; conditions: U-87 MG

Compound | IC50 (A549) [nM] | IC50 (HT-29) [nM] | IC50 [1] [nM] | IC50 [2] [nM]
COc1cc2c(Oc3ccc(NC(=O)c4nnn(-c5ccccc5C)c4C)cc3F)ccnc2cc1OCCCN1CCOCC1 | 320 | 470 | 220 | 1500
COc1cc2c(Oc3ccc(NC(=O)c4nnn(-c5ccccc5)c4C)cc3F)ccnc2cc1OCCCN1CCOCC1 | 140 | 180 | 60 | 1060
COc1cc2c(Oc3ccc(NC(=O)c4nnn(-c5ccc(F)cc5)c4C(F)(F)F)cc3F)ccnc2cc1OCCCN1CCCCC1 | 110 | 150 | 40 | 1100
COc1cc2c(Oc3ccc(NC(=O)c4nnn(-c5ccccc5C(F)(F)F)c4C)cc3F)ccnc2cc1OCCCN1CCCCC1 | 170 | 200 | 90 | 1150
COc1cc2c(Oc3ccc(NC(=O)c4nnn(-c5ccccc5C(F)(F)F)c4C)cc3F)ccnc2cc1OCCCN1CCN(C)CC1 | 200 | 230 | 100 | 1420
COc1cc2c(Oc3ccc(NC(=O)c4nnn(-c5ccc(C)cc5)c4C(F)(F)F)cc3F)ccnc2cc1OCCCN1CCC(C)CC1 | 400 | 1200 | 140 | 2800
COc1cc2c(Oc3ccc(NC(=O)c4nnn(-c5ccc(F)c(F)c5)c4C(F)(F)F)cc3F)ccnc2cc1OCCCN1CCOCC1 | 150 | 230 | 50 | 1130
COc1cc2c(Oc3ccc(NC(=O)c4nnn(-c5ccc(F)c(F)c5)c4C(F)(F)F)cc3F)ccnc2cc1OCCCN1CCC(C)CC1 | 140 | 190 | 50 | 1150
COc1cc2c(Oc3ccc(NC(=O)c4nnn(-c5ccccc5)c4C)cc3F)ccnc2cc1OCCCN1CCCC1 | 90 | 130 | 40 | 1000
COc1cc2c(Oc3ccc(NC(=O)c4nnn(-c5ccccc5C(F)(F)F)c4C)cc3F)ccnc2cc1OCCCN1CCC(C)CC1 | 180 | 260 | 60 | 1120
COc1cc2c(Oc3ccc(NC(=O)c4nnn(-c5ccccc5C(F)(F)F)c4C)cc3F)ccnc2cc1OCCCN1CCCC1 | 160 | 200 | 70 | 1060
COc1cc2c(Oc3ccc(NC(=O)c4nnn(-c5ccccc5C)c4C)cc3F)ccnc2cc1OCCCN1CCCCC1 | 330 | 450 | 160 | 2370
COc1cc2c(Oc3ccc(NC(=O)c4nnn(-c5ccccc5C)c4C)cc3F)ccnc2cc1OCCCN1CCC(C)CC1 | 360 | 520 | 120 | 2160
COc1cc2c(Oc3ccc(NC(=O)c4nnn(-c5ccccc5)c4C)cc3F)ccnc2cc1OCCCN1CCCCC1 | 100 | 120 | 80 | 1130
COc1cc2c(Oc3ccc(NC(=O)c4nnn(-c5ccccc5)c4C)cc3F)ccnc2cc1OCCCN1CCC(C)CC1 | 110 | 140 | 90 | 1240
COc1ccc(-n2nnc(C(=O)Nc3ccc(Oc4ccnc5cc(OCCCN6CCCCC6)c(OC)cc45)c(F)c3)c2C(F)(F)F)cc1 | 890 | 1220 | 280 | 2800
COc1ccc(-n2nnc(C(=O)Nc3ccc(Oc4ccnc5cc(OCCCN6CCN(C)CC6)c(OC)cc45)c(F)c3)c2C(F)(F)F)cc1 | 1220 | 2200 | 330 | –
COc1cc2c(Oc3ccc(NC(=O)c4nnn(-c5ccccc5C(F)(F)F)c4C)cc3F)ccnc2cc1OCCCN1CCOCC1 | 180 | 200 | 100 | 1010

Compound | IC50 (A549) [nM] | IC50 (HT-29) [nM] | IC50 [1] [nM] | IC50 [2] [nM]
COc1cc2c(Oc3ccc(NC(=O)c4nnn(-c5ccc(F)c(F)c5)c4C(F)(F)F)cc3F)ccnc2cc1OCCCN1CCN(C)CC1 | 130 | 150 | 90 | 1390
COc1cc2c(Oc3ccc(NC(=O)c4nnn(-c5ccccc5C)c4C)cc3F)ccnc2cc1OCCCN1CCCC1 | 380 | 450 | 270 | 1600
COc1ccc(-n2nnc(C(=O)Nc3ccc(Oc4ccnc5cc(OCCCN6CCCC6)c(OC)cc45)c(F)c3)c2C(F)(F)F)cc1 | 560 | 1020 | 590 | –
COc1cc2c(Oc3ccc(NC(=O)c4nnn(-c5ccccc5C(F)(F)F)c4C(F)(F)F)cc3F)ccnc2cc1OCCCN1CCOCC1 | 210 | 230 | 90 | 1160
COc1cc2c(Oc3ccc(NC(=O)c4nnn(-c5ccccc5Cl)c4C(F)(F)F)cc3F)ccnc2cc1OCCCN1CCN(C)CC1 | 240 | 270 | 166 | 1220
COc1cc2c(Oc3ccc(NC(=O)c4nnn(-c5ccccc5Cl)c4C(F)(F)F)cc3F)ccnc2cc1OCCCN1CCCCC1 | 190 | 200 | 110 | 1200
COc1ccc(-n2nnc(C(=O)Nc3ccc(Oc4ccnc5cc(OCCCN6CCOCC6)c(OC)cc45)c(F)c3)c2C(F)(F)F)cc1 | 640 | 1080 | 680 | 2400
COc1cc2c(Oc3ccc(NC(=O)c4nnn(-c5ccccc5C(F)(F)F)c4C(F)(F)F)cc3F)ccnc2cc1OCCCN1CCN(C)CC1 | 180 | 230 | 100 | 1440
COc1cc2c(Oc3ccc(NC(=O)c4nnn(-c5ccc(F)cc5)c4C(F)(F)F)cc3F)ccnc2cc1OCCCN1CCOCC1 | 130 | 140 | 60 | 1080
COc1cc2c(Oc3ccc(NC(=O)c4nnn(-c5ccc(F)c(F)c5)c4C(F)(F)F)cc3F)ccnc2cc1OCCCN1CCCC1 | 170 | 180 | 70 | 1070
COc1cc2c(Oc3ccc(NC(=O)c4nnn(-c5ccc(C)cc5)c4C(F)(F)F)cc3F)ccnc2cc1OCCCN1CCOCC1 | 350 | 570 | 620 | 2700
COc1cc2c(Oc3ccc(NC(=O)c4nnn(-c5ccc(C)cc5)c4C(F)(F)F)cc3F)ccnc2cc1OCCCN1CCCCC1 | 490 | 1250 | 230 | 2500
COc1cc2c(Oc3ccc(NC(=O)c4nnn(-c5cccc(Br)c5)c4C(F)(F)F)cc3F)ccnc2cc1OCCCN1CCC(C)CC1 | 350 | 380 | 120 | –
COc1cc2c(Oc3ccc(NC(=O)c4nnn(-c5ccc(C)cc5)c4C(F)(F)F)cc3F)ccnc2cc1OCCCN1CCCC1 | 370 | 550 | 210 | –
COc1cc2c(Oc3ccc(NC(=O)c4nnn(-c5ccc(F)c(F)c5)c4C(F)(F)F)cc3F)ccnc2cc1OCCCN1CCCCC1 | 160 | 180 | 90 | 1210
COc1cc2c(Oc3ccc(NC(=O)c4nnn(-c5ccccc5C(F)(F)F)c4C(F)(F)F)cc3F)ccnc2cc1OCCCN1CCC(C)CC1 | 220 | 200 | 100 | 1240
COc1cc2c(Oc3ccc(NC(=O)c4nnn(-c5ccc(C)cc5)c4C(F)(F)F)cc3F)ccnc2cc1OCCCN1CCN(C)CC1 | 370 | 1170 | 140 | 2170
